Consider 15 molecules from PubChem BioAssay (NCI).

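96-well plates; 48 h exposure; 5 concentrations. Endpoints by linear interpolation between flanking doses. Not reached: highest tested concentration assigned. The concentration for full growth arrest is given as TGI.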 Where a SMILES comes first, the peptide text is derived from it. [ ]: non-standard residue; d: D form. The star is where a group is joined. ξ: configuration not given here. ξF = NC(Cc1ccccc1)C(=O)O; Cbz = O=C(OCc1ccccc1)*

The subject of the first experiment is SK-MEL-2 melanoma. The experiment is described as follows: growth of human tumour cells (NCI), 48 h.
For `Clc1ccc(C=Nc2ccc(Oc3ccc(Cl)cc3)c(Cl)c2)cc1`, the TGI was 54.2 µM.
Still for that read-out and setting: then `CCN(/C=C1/C(=O)C(c2ccccc2)N(c2ccccc2)C1=O)CC` (configuration not stated), with more than 10 µM.
On the same count and under the same terms, in the case of `C[C@H]1CC[C@@]2(OC1)O[C@H]1C[C@H]3[C@@H]4CC[C@@H]5C[C@@H](OC6OC(CO)C(O)C(O)C6OC6OC(CO)C(O)C(O)C6O)CC[C@]5(C)[C@H]4CC[C@]3(C)[C@H]1[C@@H]2C` (some centres not stated) it was 4.03 µM.
The same measure, in the same setting: in the case of `CSc1nncc(-c2cc3c(c(SC)n2)CCCC3)n1` it was more than 100 µM; in that of `Cn1c2ccccc2c(=O)c2c(O)cc3c(c21)C1OCC(C)(O)C1O3` (configuration not stated), more than 100 µM; in that of `Cc1cc(N(CCC#N)CCC#N)ccc1/C(N=Nc1ccccc1)=N\NC(=O)c1cc(Cl)ccc1O`, more than 100 µM.
In turn, `Cn1c(CNc2ccc(-c3n[nH]c(=S)n3C)cc2)n[nH]c1=S` gave a TGI of more than 100 µM.
The same measure, in the same setting: then `Cc1ccc(N=N/C(=N/NC(=O)c2ccccc2)c2ccc(N(CCC#N)CCC#N)cc2C)cc1`, with more than 100 µM; and `COC(CN(C)C(=S)Nc1cccc2ccccc12)OC`, with more than 10 µM.
With `CCN1CCC(O)(c2ccc([N+](=O)[O-])cc2)C(C(=O)c2ccc([N+](=O)[O-])cc2)C1` (configuration not stated), the TGI is more than 100 µM.
Still for that read-out and setting: then `CCOC(=O)C1(C/C=C\CBr)CCCC1=O` (configuration not stated), with more than 100 µM; and `Cc1[nH]n(-c2nc3c(c(=O)[nH]2)CCCC3)c(=O)c1CCO`, with more than 100 µM.
On the same count and under the same terms, in the case of `Cc1cc2nc3c(C#N)c(-c4ccccc4)/c(=C\Nc4ccc(F)cc4)c(=O)n3c2cc1C` it was more than 100 µM.

For the next experiment, the system named is SK-MEL-28 melanoma. Put plainly: growth of human tumour cells (NCI), 48 h.
In turn, `Clc1ccc(C=Nc2ccc(Oc3ccc(Cl)cc3)c(Cl)c2)cc1` had a TGI of 61.5 µM.
The same measure, in the same setting: then `CCN(/C=C1/C(=O)C(c2ccccc2)N(c2ccccc2)C1=O)CC` (configuration not stated), with more than 10 µM; and `CSc1nncc(-c2cc3c(c(SC)n2)CCCC3)n1`, with more than 100 µM.
The same measure, in the same setting: in the case of `Cn1c2ccccc2c(=O)c2c(O)cc3c(c21)C1OCC(C)(O)C1O3` (configuration not stated) it was more than 100 µM; in that of `Cn1c(CNc2ccc(-c3n[nH]c(=S)n3C)cc2)n[nH]c1=S`, more than 100 µM.
On the same count and under the same terms, then `CC(N)(CC(O)(C(F)(F)Cl)C(F)(F)Cl)C(=O)O` (configuration not stated), with more than 10 µM; and `COC(CN(C)C(=S)Nc1cccc2ccccc12)OC`, with more than 10 µM; and `CCN1CCC(O)(c2ccc([N+](=O)[O-])cc2)C(C(=O)c2ccc([N+](=O)[O-])cc2)C1` (configuration not stated), with 33.5 µM.
Take `CCOC(=O)C1(C/C=C\CBr)CCCC1=O` (configuration not stated): the TGI is more than 100 µM.
In turn, `Cc1[nH]n(-c2nc3c(c(=O)[nH]2)CCCC3)c(=O)c1CCO` came in with a TGI of more than 100 µM.
The same measure, in the same setting: in the case of `Cc1cc2nc3c(C#N)c(-c4ccccc4)/c(=C\Nc4ccc(F)cc4)c(=O)n3c2cc1C` it was more than 100 µM.

The test system of a further experiment is SK-OV-3 ovarian. Put plainly: growth of human tumour cells (NCI), 48 h.
On to `Clc1ccc(C=Nc2ccc(Oc3ccc(Cl)cc3)c(Cl)c2)cc1`, for which the TGI amounted to 50.2 µM.
As for `CCN(/C=C1/C(=O)C(c2ccccc2)N(c2ccccc2)C1=O)CC` (configuration not stated), the TGI was more than 10 µM.
Same read-out and setting: in the case of `C[C@H]1CC[C@@]2(OC1)O[C@H]1C[C@H]3[C@@H]4CC[C@@H]5C[C@@H](OC6OC(CO)C(O)C(O)C6OC6OC(CO)C(O)C(O)C6O)CC[C@]5(C)[C@H]4CC[C@]3(C)[C@H]1[C@@H]2C` (some centres not stated) it was 3.29 µM.
The same measure, in the same setting: in the case of `CSc1nncc(-c2cc3c(c(SC)n2)CCCC3)n1` it was more than 100 µM.
On the same count and under the same terms, then `Cn1c2ccccc2c(=O)c2c(O)cc3c(c21)C1OCC(C)(O)C1O3` (configuration not stated), with more than 100 µM.
Molecule `Cc1cc(N(CCC#N)CCC#N)ccc1/C(N=Nc1ccccc1)=N\NC(=O)c1cc(Cl)ccc1O` displayed a TGI of more than 100 µM.
Still for that read-out and setting: in the case of `Cn1c(CNc2ccc(-c3n[nH]c(=S)n3C)cc2)n[nH]c1=S` it was more than 100 µM; in that of `Cc1ccc(N=N/C(=N/NC(=O)c2ccccc2)c2ccc(N(CCC#N)CCC#N)cc2C)cc1`, more than 100 µM; in that of `CC(N)(CC(O)(C(F)(F)Cl)C(F)(F)Cl)C(=O)O` (configuration not stated), more than 10 µM.
The same measure, in the same setting: then `COC(CN(C)C(=S)Nc1cccc2ccccc12)OC`, with more than 10 µM; and `CCN1CCC(O)(c2ccc([N+](=O)[O-])cc2)C(C(=O)c2ccc([N+](=O)[O-])cc2)C1` (configuration not stated), with more than 100 µM; and `CCOC(=O)CNC(=O)C(Cc1ccccc1)NC(=O)OCc1ccccc1` (configuration not stated) (Cbz-[ξF]-Gly-OEt), with more than 100 µM.
Take `CCOC(=O)C1(C/C=C\CBr)CCCC1=O` (configuration not stated): the TGI is more than 100 µM.
The same measure, in the same setting: then `Cc1[nH]n(-c2nc3c(c(=O)[nH]2)CCCC3)c(=O)c1CCO`, with more than 100 µM.
`Cc1cc2nc3c(C#N)c(-c4ccccc4)/c(=C\Nc4ccc(F)cc4)c(=O)n3c2cc1C`: the TGI is more than 100 µM.

In a further experiment the test system is SW-620 colon. Put plainly: growth of human tumour cells (NCI), 48 h.
The molecule `Clc1ccc(C=Nc2ccc(Oc3ccc(Cl)cc3)c(Cl)c2)cc1` yielded a TGI of more than 100 µM.
Still for that read-out and setting: then `CCN(/C=C1/C(=O)C(c2ccccc2)N(c2ccccc2)C1=O)CC` (configuration not stated), with more than 10 µM.
For the molecule `C[C@H]1CC[C@@]2(OC1)O[C@H]1C[C@H]3[C@@H]4CC[C@@H]5C[C@@H](OC6OC(CO)C(O)C(O)C6OC6OC(CO)C(O)C(O)C6O)CC[C@]5(C)[C@H]4CC[C@]3(C)[C@H]1[C@@H]2C` (some centres not stated), the TGI is 3.4 µM.
For the molecule `CSc1nncc(-c2cc3c(c(SC)n2)CCCC3)n1`, the TGI was more than 100 µM.
On to `Cn1c2ccccc2c(=O)c2c(O)cc3c(c21)C1OCC(C)(O)C1O3` (configuration not stated), for which the TGI was more than 100 µM.
Same read-out and setting: then `Cn1c(CNc2ccc(-c3n[nH]c(=S)n3C)cc2)n[nH]c1=S`, with more than 100 µM.
The same measure, in the same setting: then `CC(N)(CC(O)(C(F)(F)Cl)C(F)(F)Cl)C(=O)O` (configuration not stated), with more than 10 µM; and `COC(CN(C)C(=S)Nc1cccc2ccccc12)OC`, with more than 10 µM.
On the same count and under the same terms, then `CCN1CCC(O)(c2ccc([N+](=O)[O-])cc2)C(C(=O)c2ccc([N+](=O)[O-])cc2)C1` (configuration not stated), with more than 100 µM; and `CCOC(=O)CNC(=O)C(Cc1ccccc1)NC(=O)OCc1ccccc1` (configuration not stated) (Cbz-[ξF]-Gly-OEt), with more than 100 µM.
`CCOC(=O)C1(C/C=C\CBr)CCCC1=O` (configuration not stated) gave a TGI of 54.9 µM.
On the same count and under the same terms, then `Cc1[nH]n(-c2nc3c(c(=O)[nH]2)CCCC3)c(=O)c1CCO`, with more than 100 µM; and `Cc1cc2nc3c(C#N)c(-c4ccccc4)/c(=C\Nc4ccc(F)cc4)c(=O)n3c2cc1C`, with more than 100 µM.
